Experimental findings from US20180244611A1, “Modulators of the Cystic Fibrosis Transmembrane Conductance Regulator Protein and Methods of Use” (AbbVie S.à.r.l., priority 2017, published 2018) are described below.

Test [1] deals with T1, F508delCFTR (Homo sapiens, UniProt P13569, DEL508-508).
T1 construct: expressed in transfected cells; host or cells: CFBE41o- human lung-derived epithelial cells (CFBE41o-F508delCFTR-HRP), doxycycline-inducible
Kind of test: Cell Surface Expression-Horse Radish Peroxidase (CSE-HRP) assay, test compound without co-corrector.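 On Emax: percent of on-plate 2 µM positive control corrector response over DMSO.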 Type of test: cell-based. The following applies: for Emax: maximum at any tested concentration, normalized to positive control, without co-corrector; for EC50: test compound without co-corrector. The method in brief:
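CFBE41o- cells expressing F508delCFTR with HRP in the fourth exofacial loop, induced with 0.5 μg/mL doxycycline for 72 h at 37° C, then exposed to compound alone for 18-24 h at 33° C, 8-point 3-fold series from 20 μM. Surface HRP read by luminol luminescence, normalized to positive corrector control versus DMSO; EC50 from variable-slope sigmoidal fit of three replicate plates.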

For test [2], the target named is T1, F508delCFTR. Kind of test: Cell Surface Expression-Horse Radish Peroxidase (CSE-HRP) assay, test compound with co-corrector.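 On Maximum % activity (with co-corrector): percent of 2 µM positive control corrector over DMSO; co-corrector is that same compound.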 The following applies: with 2 μM co-corrector; for Maximum % activity (with co-corrector): maximum at any tested concentration, normalized to positive control. Type of test: cell-based. Summed up:
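CFBE41o- cells expressing F508delCFTR with HRP in the fourth exofacial loop, induced with 0.5 μg/mL doxycycline for 72 h, then treated 18-24 h at 33° C. with compound (8 points, top 20 μM, 3-fold) plus 2 μM co-corrector. Surface HRP read by luminol luminescence; activity normalised to positive control, EC50 from variable-slope sigmoidal fit.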

By Emax is commonly meant the greatest response seen or fitted, relative to the assay's reference. As a reminder, the EC50 is the concentration at which the effect is half-maximal. High values mean lower potency in that assay, low ones higher potency in that assay.

Structures are written as SMILES. Where only a bound is given, the exact number is not on record here.

T1 sequence (P13569 with tags, fused parts or gaps DEL508-508): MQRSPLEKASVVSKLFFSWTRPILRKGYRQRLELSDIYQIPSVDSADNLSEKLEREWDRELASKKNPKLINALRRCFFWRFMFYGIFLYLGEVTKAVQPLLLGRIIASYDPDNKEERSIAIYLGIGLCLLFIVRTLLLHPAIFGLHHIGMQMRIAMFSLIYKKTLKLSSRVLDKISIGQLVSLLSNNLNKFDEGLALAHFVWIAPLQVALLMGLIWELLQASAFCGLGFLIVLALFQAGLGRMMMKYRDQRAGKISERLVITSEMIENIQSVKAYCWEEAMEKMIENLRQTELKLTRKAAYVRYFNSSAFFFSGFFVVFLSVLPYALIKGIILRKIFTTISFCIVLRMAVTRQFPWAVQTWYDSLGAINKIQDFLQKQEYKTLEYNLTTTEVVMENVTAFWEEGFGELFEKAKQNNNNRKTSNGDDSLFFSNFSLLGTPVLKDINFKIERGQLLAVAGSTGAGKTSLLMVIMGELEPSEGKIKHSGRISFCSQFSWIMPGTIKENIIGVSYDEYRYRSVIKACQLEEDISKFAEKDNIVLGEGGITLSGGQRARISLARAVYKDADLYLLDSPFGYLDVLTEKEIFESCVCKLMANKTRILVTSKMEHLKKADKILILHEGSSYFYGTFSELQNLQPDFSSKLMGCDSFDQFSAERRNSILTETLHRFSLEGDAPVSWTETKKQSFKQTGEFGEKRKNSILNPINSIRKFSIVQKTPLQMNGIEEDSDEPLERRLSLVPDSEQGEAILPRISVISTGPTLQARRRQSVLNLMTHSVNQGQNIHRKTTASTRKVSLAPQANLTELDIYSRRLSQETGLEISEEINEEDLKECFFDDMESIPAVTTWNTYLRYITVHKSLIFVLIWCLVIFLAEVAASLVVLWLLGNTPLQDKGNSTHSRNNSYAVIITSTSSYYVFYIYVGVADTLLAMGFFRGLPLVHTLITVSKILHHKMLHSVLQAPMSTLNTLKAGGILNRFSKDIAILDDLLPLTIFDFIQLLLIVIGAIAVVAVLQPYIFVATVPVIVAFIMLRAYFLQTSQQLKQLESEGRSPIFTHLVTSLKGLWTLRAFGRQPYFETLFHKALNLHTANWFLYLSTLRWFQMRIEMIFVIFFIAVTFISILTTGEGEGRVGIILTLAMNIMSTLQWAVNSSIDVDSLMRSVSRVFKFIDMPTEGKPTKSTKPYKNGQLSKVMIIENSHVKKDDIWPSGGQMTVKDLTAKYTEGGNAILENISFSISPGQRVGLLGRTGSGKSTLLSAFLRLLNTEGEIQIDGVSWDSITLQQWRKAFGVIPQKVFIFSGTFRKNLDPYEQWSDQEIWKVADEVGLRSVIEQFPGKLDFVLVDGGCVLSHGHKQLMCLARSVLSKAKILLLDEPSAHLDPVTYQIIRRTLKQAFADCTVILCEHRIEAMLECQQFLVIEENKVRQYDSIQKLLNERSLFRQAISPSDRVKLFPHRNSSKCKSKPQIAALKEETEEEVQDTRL

On to `CCC1(C(=O)NS(=O)(=O)c2cccc(F)c2C)CCc2c(Cl)cccc21` (stereo not drawn) [II-101], for which, on F508delCFTR [1], the maximal effect (Emax) was less than 50% and the concentration giving a half-maximal response (EC50) was less than 3 µM. Further, at F508delCFTR [2], the “Maximum % activity (with co-corrector)” value is “++ (≥150 and <350)”; the concentration giving a half-maximal response (EC50) is less than 3 µM.

Turning to `CCC1(C(=O)NS(=O)(=O)c2ccccc2COC)CCc2c(Cl)cccc21` (stereo not drawn) [II-102], at F508delCFTR [1], the maximum response (Emax) is less than 50% and the 50% effective concentration (EC50) was in the range of 3 to 10 µM. For the same compound, on F508delCFTR [2], the “Maximum % activity (with co-corrector)” value is “++ (≥150 and <350)”; the EC50 was less than 3 µM.

Turning to `CCC1(C(=O)NS(=O)(=O)c2cccc(F)c2F)CCc2c(Cl)cccc21` (stereo not drawn) [II-103], on F508delCFTR [1], the Emax was less than 50% and the EC50 is not below 10 µM. Moreover, on F508delCFTR [2], the “Maximum % activity (with co-corrector)” value is “+ (<150)” and the concentration for a half-maximal effect (EC50) was less than 3 µM.

On F508delCFTR [1], `CCC1(C(=O)NS(=O)(=O)c2ccccc2OCC(F)F)CCc2c(Cl)cccc21` (stereo not drawn) [II-104] registered a maximal effect (Emax) of less than 50% and an EC50 of less than 3 µM. At F508delCFTR [2], the “Maximum % activity (with co-corrector)” value was “++ (≥150 and <350)”; the 50% effective concentration (EC50) is less than 3 µM.

As to `CCC1(C(=O)NS(=O)(=O)c2cccc3nccnc23)CCc2c(Cl)cccc21` (stereo not drawn) [II-105], at F508delCFTR [1], the Emax was less than 50% and the EC50 is not below 10 µM. For the same compound, on F508delCFTR [2], the “Maximum % activity (with co-corrector)” value is reported as “+ (<150)” and the EC50 is less than 3 µM.

For the compound `CCC1(C(=O)NS(=O)(=O)c2cccc(Cl)c2F)CCc2c(Cl)cccc21` (stereo not drawn) [II-106], on F508delCFTR [1], the Emax was less than 50% and the EC50 is not below 10 µM. Further, on F508delCFTR [2], the “Maximum % activity (with co-corrector)” value is “++ (≥150 and <350)”; the 50% effective concentration (EC50) is less than 3 µM.

On F508delCFTR [1], `CCC1(C(=O)NS(=O)(=O)c2cccc(Cl)c2Cl)CCc2c(Cl)cccc21` (stereo not drawn) [II-107] returned a maximal effect (Emax) of less than 50% and an EC50 of less than 3 µM. Besides, on F508delCFTR [2], the “Maximum % activity (with co-corrector)” value was “++ (≥150 and <350)”; the EC50 is less than 3 µM.

At F508delCFTR [1], `CCC1(C(=O)NS(=O)(=O)c2cn(C)c3ccccc23)CCc2c(Cl)cccc21` (stereo not drawn) [II-108] showed an Emax of 50 to 150% and a half-maximal effective concentration (EC50) of 3 to 10 µM. Also, on F508delCFTR [2], the “Maximum % activity (with co-corrector)” value is given as “+++ (≥350)” and the EC50 was less than 3 µM.

Take `COc1ccc(CCC2OCCCO2)c2c1C(C(=O)NS(=O)(=O)c1cccc3ccccc13)CCC2` (stereo not drawn) [II-109]: at F508delCFTR [1], the Emax was not below 150% and the EC50 lay within 3 to 10 µM. Besides, at F508delCFTR [2], the “Maximum % activity (with co-corrector)” value was “+++ (≥350)” and the concentration for a half-maximal effect (EC50) is 3 to 10 µM.

As to `COc1ccc(C#N)c2c1C(C(=O)NS(=O)(=O)c1cccc3ccccc13)CC2` (stereo not drawn) [II-110], on F508delCFTR [1], the Emax was not below 150% and the concentration giving a half-maximal response (EC50) lay in the range of 3 to 10 µM. Moreover, on F508delCFTR [2], the “Maximum % activity (with co-corrector)” value is “+++ (≥350)” and the EC50 was less than 3 µM.

Turning to `COc1ccc(C#N)c2c1C(C(=O)NS(=O)(=O)c1cccc3ccccc13)CCC2` (stereo not drawn) [II-111], at F508delCFTR [1], the Emax is not below 150% and the half-maximal effective concentration (EC50) was in the range of 3 to 10 µM. Also, at F508delCFTR [2], the “Maximum % activity (with co-corrector)” value is reported as “+++ (≥350)” and the EC50 is less than 3 µM.

With `CCC1(C(=O)NS(=O)(=O)c2cccc(C3CCC3)c2C)CCc2c(Cl)cccc21` (stereo not drawn) [II-112], on F508delCFTR [1], the Emax was less than 50% and the EC50 lay in the range of 3 to 10 µM. At F508delCFTR [2], the “Maximum % activity (with co-corrector)” value is “++ (≥150 and <350)”; the EC50 was less than 3 µM.

Regarding `CCC1(C(=O)NS(=O)(=O)c2cccc3cnccc23)CCc2c(Cl)cccc21` (stereo not drawn) [II-113], on F508delCFTR [1], the Emax is not below 150% and the half-maximal effective concentration (EC50) fell in the range of 3 to 10 µM. Also, at F508delCFTR [2], the “Maximum % activity (with co-corrector)” value was “+++ (≥350)” and the EC50 was less than 3 µM.

On F508delCFTR [1], `COc1cccc2c1C(C(=O)NS(=O)(=O)c1cccc3ccccc13)C2` (stereo not drawn) [II-114] had a maximum response (Emax) not below 150% and an EC50 of 3 to 10 µM. On F508delCFTR [2], the “Maximum % activity (with co-corrector)” value was “+++ (≥350)” and the concentration for a half-maximal effect (EC50) fell in the range of 3 to 10 µM.

With `COc1ccc(Br)c2c1C(C(=O)NS(=O)(=O)c1cccc3cccnc13)CC2` (stereo not drawn) [II-116], at F508delCFTR [1], the Emax is not below 150% and the concentration for a half-maximal effect (EC50) lay in the range of 3 to 10 µM. Also, at F508delCFTR [2], the “Maximum % activity (with co-corrector)” value was “+++ (≥350)” and the EC50 was 3 to 10 µM.

For `COc1ccc(Br)c2c1C(C(=O)NS(=O)(=O)c1ccc(F)c3ncccc13)CC2` (stereo not drawn) [II-117], on F508delCFTR [1], the maximal effect (Emax) is not below 150% and the half-maximal effective concentration (EC50) was in the range of 3 to 10 µM. Further, at F508delCFTR [2], the “Maximum % activity (with co-corrector)” value is on record as “+++ (≥350)” and the EC50 was less than 3 µM.

As for `CCC1(C(=O)NS(=O)(=O)c2cccc3ccccc23)Cc2cccc(OC)c21` (stereo not drawn) [II-118], on F508delCFTR [1], the Emax is not below 150% and the concentration for a half-maximal effect (EC50) is 3 to 10 µM. In addition, on F508delCFTR [2], the “Maximum % activity (with co-corrector)” value is reported as “+++ (≥350)” and the concentration for a half-maximal effect (EC50) was less than 3 µM.

At F508delCFTR [1], `COc1ccc(-c2cccc(OC(F)(F)F)c2)c2c1C(C(=O)NS(=O)(=O)c1cccc3ccccc13)CCC2` (stereo not drawn) [II-119] returned a maximum response (Emax) not below 150% and a concentration giving a half-maximal response (EC50) of 3 to 10 µM. Also, at F508delCFTR [2], the “Maximum % activity (with co-corrector)” value is “+++ (≥350)” and the EC50 was 3 to 10 µM.

Take `COc1ccc(/C=C/c2ccccc2)c2c1C(C(=O)NS(=O)(=O)c1cccc3ccccc13)CCC2` (stereo not drawn) [II-120]: on F508delCFTR [1], the Emax was less than 50% and the concentration giving a half-maximal response (EC50) was 3 to 10 µM. On F508delCFTR [2], the “Maximum % activity (with co-corrector)” value was “++ (≥150 and <350)”; the 50% effective concentration (EC50) fell in the range of 3 to 10 µM.

As for `COc1ccc(C2=CCOCC2)c2c1C(C(=O)NS(=O)(=O)c1cccc3ccccc13)CCC2` (stereo not drawn) [II-121], on F508delCFTR [1], the Emax is not below 150% and the EC50 is 3 to 10 µM. On F508delCFTR [2], the “Maximum % activity (with co-corrector)” value is listed as “+++ (≥350)” and the EC50 was less than 3 µM.

As to `COc1ccc(-c2ccc(C)nc2)c2c1CCCC2C(=O)NS(=O)(=O)c1cccc2ccccc12` (stereo not drawn) [II-122], at F508delCFTR [1], the Emax is not below 150% and the 50% effective concentration (EC50) lay in the range of 3 to 10 µM. On F508delCFTR [2], the “Maximum % activity (with co-corrector)” value is given as “+++ (≥350)” and the concentration giving a half-maximal response (EC50) is less than 3 µM.

On F508delCFTR [1], `CCOc1ccc2c(S(=O)(=O)NC(=O)C3CCc4c(Br)ccc(OC)c43)cccc2n1` (stereo not drawn) [II-123] returned an Emax not below 150% and an EC50 of 3 to 10 µM. Further, on F508delCFTR [2], the “Maximum % activity (with co-corrector)” value is listed as “+++ (≥350)” and the 50% effective concentration (EC50) lay in the range of 3 to 10 µM.

On F508delCFTR [1], `COc1ccc(N2CCCC2)c2c1C(C(=O)NS(=O)(=O)c1cccc3ccccc13)CCC2` (stereo not drawn) [II-124] had a maximal response (Emax) not below 150% and a concentration giving a half-maximal response (EC50) of less than 3 µM. Further, at F508delCFTR [2], the “Maximum % activity (with co-corrector)” value is reported as “+++ (≥350)” and the concentration giving a half-maximal response (EC50) is less than 3 µM.

On F508delCFTR [1], `CCC1(C(=O)NS(=O)(=O)c2cccc(N3CCCCC3)c2C)CCc2c(Cl)cccc21` (stereo not drawn) [II-125] registered an Emax of 50 to 150% and an EC50 of 3 to 10 µM. On F508delCFTR [2], the “Maximum % activity (with co-corrector)” value was “+++ (≥350)” and the EC50 is 3 to 10 µM.

Turning to `CCC1(C(=O)NS(=O)(=O)c2cccc(N3CC(F)(F)C3)c2C)CCc2c(Cl)cccc21` (stereo not drawn) [II-126], at F508delCFTR [1], the Emax lay within 50 to 150% and the EC50 lay within 3 to 10 µM. In addition, at F508delCFTR [2], the “Maximum % activity (with co-corrector)” value is “+++ (≥350)” and the EC50 was 3 to 10 µM.

At F508delCFTR [1], `CCC1(C(=O)NS(=O)(=O)c2cccc(N3CCC(F)(F)C3)c2C)CCc2c(Cl)cccc21` (stereo not drawn) [II-127] had a maximal effect (Emax) of 50 to 150% and a half-maximal effective concentration (EC50) of 3 to 10 µM. At F508delCFTR [2], the “Maximum % activity (with co-corrector)” value is “+++ (≥350)” and the EC50 is less than 3 µM.

`COc1ccc(-c2ccc(C(F)(F)F)nc2)c2c1CCCC2C(=O)NS(=O)(=O)c1cccc2ccccc12` (stereo not drawn) [II-129]: on F508delCFTR [1], the maximal response (Emax) is not below 150% and the concentration giving a half-maximal response (EC50) is less than 3 µM. At F508delCFTR [2], the “Maximum % activity (with co-corrector)” value is “+++ (≥350)” and the 50% effective concentration (EC50) is less than 3 µM.
